Values joined by “and” are separate entries in the source; they are usually repeats but may differ in a detail not shown here. Equal entries are not always repeated.
Columns and labels:
[1] = biological target: EGFR (Human), P00533 [T790M/L858R]; conditions: baf3
[2] = biological target: EGFR (Human), P00533 [T790M/L858R]
[3] = biological target: EGFR (human), P00533 [L858R]
EGFR (human) = EGFR (human) (UniProt P00533)
[4] = biological target: EGFR (Human), P00533 [Assessment of EGFR-Del T790M Dependent Cell Proliferation in BaF3 Cells]
Sequence of EGFR (Human), P00533 [Assessment of EGFR-Del T790M Dependent Cell Proliferation in BaF3 Cells] (P00533 whole entry, looked up, stated change not applied): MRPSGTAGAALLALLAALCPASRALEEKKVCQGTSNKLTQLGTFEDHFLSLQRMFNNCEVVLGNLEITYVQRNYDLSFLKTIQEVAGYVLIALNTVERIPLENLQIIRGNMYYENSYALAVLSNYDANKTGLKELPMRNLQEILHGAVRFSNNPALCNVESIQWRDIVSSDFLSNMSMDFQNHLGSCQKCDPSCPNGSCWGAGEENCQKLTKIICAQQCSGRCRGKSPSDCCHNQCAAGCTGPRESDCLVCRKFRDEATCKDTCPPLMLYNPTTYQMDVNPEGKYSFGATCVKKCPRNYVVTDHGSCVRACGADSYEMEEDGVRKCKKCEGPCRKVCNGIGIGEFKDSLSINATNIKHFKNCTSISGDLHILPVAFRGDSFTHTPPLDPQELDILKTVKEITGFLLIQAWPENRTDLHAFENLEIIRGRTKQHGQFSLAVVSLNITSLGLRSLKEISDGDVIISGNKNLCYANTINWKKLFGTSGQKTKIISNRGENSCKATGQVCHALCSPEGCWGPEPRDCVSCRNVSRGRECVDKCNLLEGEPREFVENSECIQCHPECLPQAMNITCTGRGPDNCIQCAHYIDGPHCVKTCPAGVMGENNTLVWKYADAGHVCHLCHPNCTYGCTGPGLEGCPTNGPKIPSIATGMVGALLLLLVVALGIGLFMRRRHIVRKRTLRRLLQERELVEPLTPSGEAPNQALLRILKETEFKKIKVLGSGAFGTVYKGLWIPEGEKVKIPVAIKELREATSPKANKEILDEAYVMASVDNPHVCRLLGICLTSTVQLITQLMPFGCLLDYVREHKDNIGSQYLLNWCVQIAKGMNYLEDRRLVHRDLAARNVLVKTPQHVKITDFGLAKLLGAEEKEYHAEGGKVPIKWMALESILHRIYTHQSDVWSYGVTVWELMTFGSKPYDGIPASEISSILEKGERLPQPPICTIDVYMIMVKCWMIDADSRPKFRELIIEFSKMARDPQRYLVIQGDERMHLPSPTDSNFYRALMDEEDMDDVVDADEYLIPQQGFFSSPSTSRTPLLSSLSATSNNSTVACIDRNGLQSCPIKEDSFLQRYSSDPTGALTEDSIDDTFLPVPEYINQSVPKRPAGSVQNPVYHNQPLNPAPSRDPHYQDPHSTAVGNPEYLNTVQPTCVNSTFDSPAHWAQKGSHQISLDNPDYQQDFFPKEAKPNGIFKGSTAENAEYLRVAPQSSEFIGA

Sequence of EGFR (human), P00533 [L858R] (P00533 whole entry L858R, looked up): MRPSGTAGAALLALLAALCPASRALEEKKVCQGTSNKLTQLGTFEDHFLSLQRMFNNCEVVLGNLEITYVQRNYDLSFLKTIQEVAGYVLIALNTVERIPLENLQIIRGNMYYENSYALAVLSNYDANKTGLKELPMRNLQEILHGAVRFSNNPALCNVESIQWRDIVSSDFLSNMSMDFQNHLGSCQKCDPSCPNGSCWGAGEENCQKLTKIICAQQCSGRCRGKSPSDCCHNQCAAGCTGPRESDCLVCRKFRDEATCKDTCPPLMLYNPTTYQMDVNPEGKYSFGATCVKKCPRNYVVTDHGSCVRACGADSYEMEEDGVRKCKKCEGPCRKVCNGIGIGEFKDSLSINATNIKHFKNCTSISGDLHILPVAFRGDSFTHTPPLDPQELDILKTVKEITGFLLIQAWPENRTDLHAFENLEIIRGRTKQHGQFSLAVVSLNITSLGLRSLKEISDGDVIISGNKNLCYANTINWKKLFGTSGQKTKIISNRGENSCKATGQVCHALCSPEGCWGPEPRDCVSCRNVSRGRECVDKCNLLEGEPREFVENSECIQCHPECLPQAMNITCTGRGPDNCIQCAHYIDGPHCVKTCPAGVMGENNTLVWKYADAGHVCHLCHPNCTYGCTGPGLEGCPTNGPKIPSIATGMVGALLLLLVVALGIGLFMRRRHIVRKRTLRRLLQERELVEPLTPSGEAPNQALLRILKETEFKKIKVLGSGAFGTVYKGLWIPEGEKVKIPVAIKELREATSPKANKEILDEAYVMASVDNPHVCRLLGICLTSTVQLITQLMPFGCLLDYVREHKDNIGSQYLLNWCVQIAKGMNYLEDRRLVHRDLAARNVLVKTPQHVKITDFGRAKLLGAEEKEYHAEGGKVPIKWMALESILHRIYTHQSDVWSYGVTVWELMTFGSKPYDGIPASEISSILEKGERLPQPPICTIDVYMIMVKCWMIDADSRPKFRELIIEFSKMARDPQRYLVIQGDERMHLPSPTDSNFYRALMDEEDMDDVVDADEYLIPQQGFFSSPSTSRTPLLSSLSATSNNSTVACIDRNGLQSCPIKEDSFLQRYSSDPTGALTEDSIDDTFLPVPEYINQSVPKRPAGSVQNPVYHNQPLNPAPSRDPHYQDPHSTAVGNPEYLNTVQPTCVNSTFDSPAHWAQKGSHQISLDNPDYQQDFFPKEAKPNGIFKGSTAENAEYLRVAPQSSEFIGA
Sequence of EGFR (human) (P00533 whole entry, looked up): as the sequence (P00533 whole entry, looked up, stated change not applied) above
Sequence of EGFR (Human), P00533 [T790M/L858R] (P00533 whole entry T790M/L858R, looked up): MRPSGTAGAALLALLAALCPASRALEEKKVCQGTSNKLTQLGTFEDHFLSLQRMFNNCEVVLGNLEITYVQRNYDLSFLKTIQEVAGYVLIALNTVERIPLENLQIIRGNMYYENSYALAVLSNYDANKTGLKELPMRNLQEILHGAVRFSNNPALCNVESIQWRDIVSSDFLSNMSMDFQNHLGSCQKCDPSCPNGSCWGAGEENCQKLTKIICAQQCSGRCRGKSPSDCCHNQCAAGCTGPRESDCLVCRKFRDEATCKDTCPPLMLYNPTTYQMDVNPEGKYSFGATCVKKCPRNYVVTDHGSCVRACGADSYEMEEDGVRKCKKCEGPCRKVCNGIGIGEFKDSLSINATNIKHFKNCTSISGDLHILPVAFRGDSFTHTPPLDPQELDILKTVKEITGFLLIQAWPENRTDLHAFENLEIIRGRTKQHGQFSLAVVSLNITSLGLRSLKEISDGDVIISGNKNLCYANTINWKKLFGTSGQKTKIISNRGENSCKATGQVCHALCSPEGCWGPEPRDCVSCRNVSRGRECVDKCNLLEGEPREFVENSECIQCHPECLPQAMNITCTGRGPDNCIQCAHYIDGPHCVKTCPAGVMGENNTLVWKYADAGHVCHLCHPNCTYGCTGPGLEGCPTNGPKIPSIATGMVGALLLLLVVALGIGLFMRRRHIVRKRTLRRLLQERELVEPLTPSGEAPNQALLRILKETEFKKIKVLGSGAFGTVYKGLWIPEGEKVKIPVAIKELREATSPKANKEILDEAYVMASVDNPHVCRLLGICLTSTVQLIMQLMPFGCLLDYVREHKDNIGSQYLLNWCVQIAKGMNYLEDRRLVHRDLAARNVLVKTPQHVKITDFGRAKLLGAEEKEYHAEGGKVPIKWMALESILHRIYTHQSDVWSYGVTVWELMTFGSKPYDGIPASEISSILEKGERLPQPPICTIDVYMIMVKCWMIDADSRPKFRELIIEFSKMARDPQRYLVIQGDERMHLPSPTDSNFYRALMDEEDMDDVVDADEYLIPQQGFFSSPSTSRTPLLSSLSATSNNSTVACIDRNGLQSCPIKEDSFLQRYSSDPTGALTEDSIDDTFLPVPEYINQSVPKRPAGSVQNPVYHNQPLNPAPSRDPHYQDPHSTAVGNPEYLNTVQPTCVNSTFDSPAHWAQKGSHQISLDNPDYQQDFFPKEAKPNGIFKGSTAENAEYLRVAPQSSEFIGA

| Structure (SMILES) | IC50 [1] | IC50 [2] | IC50 [3] | IC50 (EGFR (human)) | IC50 [4] |
| --- | --- | --- | --- | --- | --- |
| C=CC(=O)Nc1cc(Nc2ncc(Cl)c(Nc3ccccc3P(C)(C)=O)n2)c(OC)cc1OCC1CCCCN1C (stereo not drawn) | < 0.05 µM | < 0.05 µM | < 0.05 µM | < 0.05 µM | < 0.05 µM |
| COc1cc(F)c(NC(=O)/C=C/Cl)cc1Nc1ncc(Cl)c(Nc2ccccc2P(C)(C)=O)n1 | < 0.05 µM | < 0.05 µM | < 0.05 µM | < 0.05 µM | < 0.05 µM |
| C=CC(=O)Nc1cc(Nc2ncc(Cl)c(Nc3ccccc3P(C)(C)=O)n2)c(OC)cc1CN1CCN(C)CC1 | 0.05 to 0.1 µM | < 0.05 µM | < 0.05 µM | < 0.05 µM | < 0.05 µM |
| COc1cc(C)c(NC(=O)CCl)cc1Nc1ncc(Cl)c(Nc2ccccc2P(C)(C)=O)n1 | < 0.05 µM | < 0.05 µM | < 0.05 µM | < 0.05 µM | < 0.05 µM |
| COc1ccc(NC(=O)/C=C\C(=O)O)cc1Nc1ncc(Cl)c(Nc2ccccc2P(C)(C)=O)n1 |  | 0.101 to 0.25 µM |  |  |  |
| CC#CC(=O)Nc1cc(Nc2ncc(Cl)c(Nc3ccccc3P(C)(C)=O)n2)c(OC)cc1OCC1CCOCC1 | 0.05 to 0.1 µM |  | 0.101 to 0.25 µM |  | < 0.05 µM |
| COCCC#CC(=O)Nc1cc(Nc2ncc(Cl)c(Nc3ccccc3P(C)(C)=O)n2)c(OC)cc1N1CCOCC1 | < 0.05 µM | < 0.05 µM | < 0.05 µM | < 0.05 µM | < 0.05 µM |
| C=CC(=O)Nc1cc(Nc2ncc(Cl)c(Nc3ccc(OCCN4CCCC4)cc3P(C)(C)=O)n2)c(OC)cc1F | < 0.05 µM | < 0.05 µM | < 0.05 µM | < 0.05 µM | < 0.05 µM |
| CC#CC(=O)Nc1cc(Nc2ncc(Cl)c(Nc3ccccc3P(C)(C)=O)n2)c(OC)cc1N1CCC(N(C)C)C1 (stereo not drawn) | 0.05 to 0.1 µM | < 0.05 µM | < 0.05 µM | < 0.05 µM | < 0.05 µM |
| C=CC(=O)Nc1cc(Nc2ncc(Cl)c(Nc3ccccc3P(C)(C)=O)n2)c(OC)cc1N1CCC(N(C)C)C1 (stereo not drawn) | < 0.05 µM | < 0.05 µM | < 0.05 µM | < 0.05 µM | < 0.05 µM |
| COc1ccc(NC(=O)C2=CCCN(C)C2)cc1Nc1ncc(Cl)c(Nc2ccccc2P(C)(C)=O)n1 |  | < 0.05 µM | < 0.05 µM |  |  |
| C=CC(=O)Nc1cc(Nc2ncc(Cl)c(Nc3ccccc3P(C)(C)=O)n2)c(OC)cc1N1CCC(N(CC)CC)C1 (stereo not drawn) | < 0.05 µM | < 0.05 µM | < 0.05 µM | < 0.05 µM | < 0.05 µM |
| C=CC(=O)Nc1cc(Nc2ncc(Cl)c(Nc3ccccc3P(C)(C)=O)n2)c(OC)cc1OCC1CCOCC1 | 0.101 to 0.25 µM | 0.05 to 0.1 µM | < 0.05 µM |  | 0.05 to 0.1 µM |
| C=C(F)C(=O)Nc1ccc(OC)c(Nc2ncc(Cl)c(Nc3ccccc3P(C)(C)=O)n2)c1 | 0.05 to 0.1 µM | 0.05 to 0.1 µM | < 0.05 µM |  | < 0.05 µM |
| COc1ccc(NC(=O)/C=C\C(=O)NCCN(C)C)cc1Nc1ncc(Cl)c(Nc2ccccc2P(C)(C)=O)n1 |  | < 0.05 µM | < 0.05 µM |  |  |
| C=CC(=O)Nc1cc(Nc2ncc(Cl)c(Nc3ccccc3P(C)(C)=O)n2)c(OC)cc1OCC1CCCN1C (stereo not drawn) | < 0.05 µM |  |  |  | < 0.05 µM |
| C=CC(=O)Nc1cc(Cc2ncc(Cl)c(Nc3ccccc3P(C)(C)=O)n2)c(OC)cc1C#CCN1CCC(N(C)C)C1 (stereo not drawn) |  | < 0.05 µM | < 0.05 µM | 0.05 to 0.1 µM |  |
| COc1ccc(NC(=O)/C=C/C(=O)N(C)C)cc1Nc1ncc(Cl)c(Nc2ccccc2P(C)(C)=O)n1 |  | 0.101 to 0.25 µM | 0.05 to 0.1 µM |  |  |
| C=CC(=O)Nc1cc(Cc2ncc(Cl)c(Nc3ccccc3P(C)(C)=O)n2)c(OC)cc1C#CCN1CCC(C)CC1 |  | < 0.05 µM | < 0.05 µM | < 0.05 µM |  |
| C=CC(=O)N1CCc2cc(Nc3ncc(Cl)c(Nc4ccccc4P(C)(C)=O)n3)c(OC)cc21 |  |  |  |  | 0.101 to 0.25 µM |
| C=CC(=O)Nc1cc(Nc2ncc(Cl)c(Nc3ccccc3P(C)(C)=O)n2)c(OC)cc1C#CC1(N(C)C)CC1 | 0.101 to 0.25 µM | < 0.05 µM | < 0.05 µM |  | 0.101 to 0.25 µM |
| C=CC(=O)Nc1cc(Nc2ncc(Cl)c(Nc3ccccc3P(C)(C)=O)n2)c(OC)cc1N1CCC(N2CCN(C)CC2)CC1 | 0.05 to 0.1 µM and < 0.05 µM | < 0.05 µM |  | < 0.05 µM | 0.05 to 0.1 µM and < 0.05 µM |
| C=CC(=O)Nc1cc(Nc2ncc(Cl)c(Nc3ccccc3P(C)(C)=O)n2)c(OC)cc1C(=O)N1CCN(C)CC1 |  | < 0.05 µM | < 0.05 µM | 0.101 to 0.25 µM |  |
| COc1ccc(NC(=O)/C=C/C(=O)N2CCN(C)CC2)cc1Nc1ncc(Cl)c(Nc2ccccc2P(C)(C)=O)n1 |  | < 0.05 µM | < 0.05 µM | < 0.05 µM | 0.101 to 0.25 µM |
| C=CC(=O)Nc1cc(Nc2ncc(Cl)c(Nc3ccccc3P(C)(C)=O)n2)c(OC)cc1OCC(CO)N(C)C (stereo not drawn) |  |  |  |  | 0.101 to 0.25 µM |
| COc1ccc(NC(=O)/C=C\C(=O)N2CCN(C)CC2)cc1Nc1ncc(Cl)c(Nc2ccccc2P(C)(C)=O)n1 |  |  | 0.101 to 0.25 µM |  |  |
| CNC(=O)/C=C\C(=O)Nc1ccc(OC)c(Nc2ncc(Cl)c(Nc3ccccc3P(C)(C)=O)n2)c1 | 0.101 to 0.25 µM | < 0.05 µM | < 0.05 µM |  | < 0.05 µM |

From the Kinase Knowledgebase extract (Sharma et al. 2016)
